Assay: in vitro activity comparison (FIG. 1)
Type: cell-based
Conditions: relative to ITI-367

## COc1ccccc1C(=Nc1cccc(C(F)(F)F)c1)NO [CPSI-00220, N-hydroxy-2-methoxy-N′-(3-trifluoromethyl-phenyl)-benzamidine]
  effectiveness in vitro compared with ITI-367: equally (and possibly more) as effective as ITI-367

— patent publication US20110237679A1, “NOVEL ANTIVIRAL COMPOUNDS, COMPOSITIONS, AND METHODS OF USE” (CYTOKINE PHARMASCIENCES, INC., priority 2008, published 2011)
